Experimental data as given in patent publication US11920157B2, “Applications of butylidenephthalide” (NATIONAL DONG HWA UNIVERSITY, priority 2016, dated 2024).

Legend:
adipose stem cells = test: Production of adipose droplets in adipose cells differentiated from adipose stem cells (microscope morphology, oil red stain); format: cell-based; settings: 7 days
Experimental: A DMEM medium (brand name: GIBCO; product number: 11965092) was used as a basic medium, and rosiglitazone (concentration: 0.5 μM, solvent: dimethyl sulfoxide (DMSO)), insulin (concentration: 170 nM, solvent: culture medium), 3-isobutyl-1-methylxanthine (IBMX; concentration: 0.5 μM, solvent: DMSO) and dexamethasone (concentration: 1 μM, solvent: DMSO) were externally added therein to provide a conditional medium.
The adipose stem cells (ADSCs) were cultivated in a DMEM/F12 medium at 37° C., 5% CO2 for 5 days. […] The results are shown in FIG. 1 (i.e., adipose stem cells (undifferentiated)).
The aforementioned pre-cultivated adipose stem cells provided by Example B1-1 were cultivated in a conditional medium provided by Example A1 at 37° C., 5% CO2 for 7 days to differentiate into adipose cells. […] The results are also shown in FIG. 1 (i.e., adipose cells (differentiated)).
(§1) The adipose cells provided by Example B1-2 were divided into seven groups and independently subjected to the following treatments:
(2) BP-2 group: cells were cultivated in a conditional medium that was externally added with butylidenephthalide (BP) (to a final concentration of 2 μg/mL) for 7 days (butylidenephthalide (BP) was purchased from ECHO CHEMICAL Co., Ltd. (Taiwan); product number: A10353);
(§2) (3) BP-10 group: cells were cultivated in a conditional medium that was externally added with butylidenephthalide (BP) (to a final concentration of 10 μg/mL) for 7 days;
(4) BP-50 group: cells were cultivated in a conditional medium that was externally added with butylidenephthalide (BP) (to a final concentration of 50 μg/mL) for 7 days;
First, the cell morphology of each group in photos taken in Examples B1-1, B1-2 and B1-3 was observed.
Thereafter, the adipose droplets of adipose stem cells (undifferentiated) provided by Example B1-1, adipose cells (differentiated) provided by Example B1-2 and adipose cells in “BP-2 group”, “BP-10 group” and “BP-50 group” provided by Example B1-3 were stained by oil red dye, and the morphology thereof was taken photos and recorded. Then, the number of adipose droplets of adipose cells in each group was quantified.

adipose cells = test: Oxygen consumption rate and spare respiratory capacity of adipose cells (XF24 extracellular flux analyser); format: cell-based; settings: 7 days, vs differentiated adipose cells not treated by BP
From the text: As described above, different from white adipose cells, the morphology of brown-like adipose cells/brown adipose cells is characterized by (i) containing numerous adipose droplets, (ii) containing a large number of mitochondria and (iii) having highly expressed uncoupling protein 1 (UCP1). […] Therefore, the number and proportion of brown-like adipose cells/brown adipose cells can be conceived by observing the number of adipose droplets in the cells, the oxygen consumption rate of adipose cells and the gene and protein expressions of UCP1.
After a medium was replaced with a fresh medium, the cells were continuously cultivated at 37° C. for 1 hour. Then, the mitochondrial biosynthesis of cells in each group was separately interfered with 25 μM oligomycin, 0.5 μM FCCP and 5 μM rotenone/antimycin A sequentially, and was continuously detected by a XF24 extracellular flux analyser (purchased from Seahorse Bioscience) prior to and during conduction of the aforementioned interference. The oxygen tension and acidification degree in the culture medium were detected by an adjusted probe to further calculate the oxygen consumption rate and spare respiratory capacity. The results of oxygen consumption rate are shown in FIG. 3A, and the results of basic oxygen consumption rate and spare respiratory capacity are shown in FIG. 3B.

UCP1 = UCP1 gene (RT-PCR) and UCP1 protein (Western blot) expression in adipose cells; format: cell-based; settings: 7 days
Experimental: as §1
(1) Control group: cells were cultivated in a conditional medium provided by A1 for 7 days;
as §2
(5) Tofacitinib group: cells were cultivated in a conditional medium that was externally added with tofacitinib (to a final concentration of 2 μM) for 7 days (tofacitinib was purchased from UNI-ONWARD Corp. (Taiwan); product number: PZ0017);
(6) Adenosine group: cells were cultivated in a conditional medium that was externally added with adenosine (to a final concentration of 1 μM) for 7 days (adenosine was purchased from UNI-ONWARD Corp. (Taiwan); product number: A4036); and
(7) Proanthocyanidin group: cells were cultivated in a conditional medium that was externally added with proanthocyanidin (to a final concentration of 10 μM) for 7 days (adenosine was purchased from Hong Jing Co., Ltd. (Taiwan); product number: sc-344976).
The cells in each group provided by Example B1-3 were separately collected, and then the total RNA and protein of the cells were individually extracted for the following experimentation.
The total RNA was subjected to reverse transcription to provide cDNA, and then the expression of UCP1 gene of the cells in each group was analyzed by reverse transcription polymerase chain reaction (RT-PCR). The results are shown in FIG. 4A, wherein FABP4 gene was a biomarker of mature adipose cells, and thus, it was used as an internal control of adipose cells in this experimentation. The actin gene was used as an internal control of all the cells. Furthermore, the expression of UCP1 protein of the cells in each group was analyzed by Western blot. The results are shown in FIG. 4B, wherein FABP4 protein was used as an internal control of adipose cells. The actin was used as an internal control of all the cells.

C57BL/6 mice [1] = test: Fat browning in subcutaneous and visceral adipose tissue slices of high fat diet mice (H&E stain); format: in vivo; settings: 18 weeks old, BP oral 250 mg/kg-body weight daily from week 9, cells i.v. 4×10^5 every two weeks from week 11, vs HFD group
Experimental: (§3) The C57BL/6 mice (purchased from National Laboratory Animal Center, Taiwan) were bred in Laboratory Animal Center of China Medical University, Taiwan (conditions: 3 mice were bred per cage; the temperature of the breeding room ranged from 20° C. to 24° C., and the relative humidity ranged from 50% to 70%; the light cycle was 12 hours; sufficient water and normal diet were supplied daily) until they were 4 weeks old. Then, the mice were randomly divided into seven groups (six mice per group), and individually subjected to the following treatment and experimentation:
(§4) (3) Oral administration of butylidenephthalide (BP) group (i.e., “HFD+BP” group): the mice were continuously fed with a high fat diet, and then simultaneously administered with butylidenephthalide (BP) by oral route at the beginning of the ninth week (dosage amount: every day, 250 mg/kg-body weight) until they were 18 weeks old. […]
B2-3. […] The weight of the subcutaneous adipose tissue and visceral adipose tissue of mice were measured and recorded, and the collected organs were kept at a temperature of −80° C. for following experimentation and analysis. […]

C57BL/6 mice [2] = test: Accumulation of white fat: organ appearance and weight of subcutaneous and visceral adipose tissue of high fat diet mice; format: in vivo
Experimental: as §3
(§5) (3) Oral administration of butylidenephthalide (BP) group (i.e., “HFD+BP” group): the mice were continuously fed with a high fat diet, and then simultaneously administered with butylidenephthalide (BP) by oral route at the beginning of the ninth week (dosage amount: every day, 250 mg/kg-body weight) until they were 18 weeks old.
(§6) (4) Cell infusion of adipose stem cells group (i.e., “HFD+ADSC” group): the mice were continuously fed with a high fat diet, and then simultaneously administered with adipose stem cells by intravenous injection at the beginning of the eleventh week (dosage amount: every two weeks, 4×10^5 cells suspended in 100˜150 μL of normal saline) until they were 18 weeks old (four injections in total).
(5) Oral administration of butylidenephthalide (BP) in combination with cell infusion of adipose stem cells group (i.e., “HFD+BP+ADSC” group): the mice were continuously fed with a high fat diet, then simultaneously administered with butylidenephthalide (BP) by oral route at the beginning of the ninth week (dosage amount: every day, 250 mg/kg-body weight), and further simultaneously administered with adipose stem cells by intravenous injection at the beginning of the eleventh week (dosage amount: every two weeks, 4×10^5 cells suspended in 100˜150 μL of normal saline) until they were 18 weeks old (four injections in total). […]
B2-3. […] The weight of the subcutaneous adipose tissue and visceral adipose tissue of mice were measured and recorded, and the collected organs were kept at a temperature of −80° C. for following experimentation and analysis.
To understand whether butylidenephthalide (BP) can alleviate the accumulation of white fat or not, the photos of appearances of the liver, heart, kidney, subcutaneous adipose tissue and visceral adipose tissue of mice in each group recorded in Example B2-3 are shown in FIG. 6A. The weight of subcutaneous adipose tissue and visceral adipose tissue of mice in each group recorded in Example B2-3 were respectively averaged.

[3] = Change of mouse weight in high fat diet mice; format: in vivo; settings: vs HFD group
Experimental: as §3, §4
B2-1. In the preparation process of above Example A2, the weight change of mice was recorded every week until they were 18 weeks old.
To understand whether butylidenephthalide (BP) is effective in inhibiting weight gain or not, the average value of the recorded weights of mice in each group of Example B2-1 was obtained weekly.

C57BL/6 mice [4] = test: Contents of glucose, triglycerides and total cholesterol in blood of high fat diet mice; format: in vivo
Experimental: as §3, §5, §6
(5) Oral administration of butylidenephthalide (BP) in combination with cell infusion of adipose stem cells group (i.e., “HFD+BP+ADSC” group): the mice were continuously fed with a high fat diet, then simultaneously administered with butylidenephthalide (BP) by oral route at the beginning of the ninth week (dosage amount: every day, 250 mg/kg-body weight), and further simultaneously administered with adipose stem cells by intravenous injection at the beginning of the eleventh week (dosage amount: every two weeks, 4×10^5 cells suspended in 100˜150 μL of normal saline) until they were 18 weeks old (four injections in total).
(6) Cell infusion of brown-like adipose cells group (i.e., “HFD+BLC” group): the mice were fed with a high fat diet, and then simultaneously administered with brown-like adipose cells provided by Example 1 by intravenous injection at the beginning of the eleventh week (dosage amount: every two weeks, 4×10^5 cells suspended in 100˜150 μL of normal saline) until they were 18 weeks old (four injections in total).
(7) Oral administration of butylidenephthalide (BP) in combination with cell infusion of brown-like adipose cells group (i.e., “HFD+BP+BLC” group): the mice were continuously fed with a high fat diet, then simultaneously administered with butylidenephthalide (BP) by oral route (dosage amount: every day, 250 mg/kg-body weight) at the beginning of the ninth week, and further simultaneously administered with brown-like adipose cells provided by Example 1 by intravenous injection at the beginning of the eleventh week (dosage amount: every two weeks, 4×10^5 cells suspended in 100˜150 μL of normal saline) until they were 18 weeks old (four injections in total).
B2-2. After Example B2-1 was accomplished, the mice was subjected to fast for 12 hours, and then the blood of mice was collected in a serum tube by cardic blood collection. The collected blood was stand for 30 minutes, and then subjected to centrifuge at 3000 rpm, 4° C. for 10 minutes. The supernatant thus provided was collected (i.e., blood sample) and kept at a temperature of 4° C. for following experimentation and analysis.
To understand whether butylidenephthalide (BP) is effective in reducing the contents of glucose, triglycerides and total cholesterol in blood or not, the blood sample of mice in each group provided by Example B2-2 was detected by a SYSMEX K-1000 and TOSHIBA TBA200FA automatic blood analyzer to analyze the contents of glucose, triglycerides and total cholesterol in blood of mice. The results of each group were averaged. Based on the result of “HFD” group, the relative contents of glucose, triglycerides and total cholesterol of each group were calculated.

[5] = 18 weeks old, BP oral 250 mg/kg-body weight daily from week 9, cells i.v. 4×10^5 every two weeks from week 11
[6] = based on the result of HFD group (100)
[7] = high fat diet mice, 18 weeks old, fasted 12 hours, BP oral 250 mg/kg-body weight daily, cells i.v. 4×10^5 every two weeks
[8] = high fat diet mice, vs HFD group

In the case of `CCCC=C1OC(=O)c2ccccc21` [BP, butylidenephthalide], the “content of adipose droplets (oil red stain, FIGS. 2A, 2B)” value (from here on “content of adipose droplets”) (adipose stem cells; BP 2 μg/mL, vs adipose cells not treated by BP) is reported as “contained more adipose droplets”, the “adipose droplets in cells (microscope morphology, FIG. 1)” value (adipose stem cells; BP 10 μg/mL in conditional medium, vs undifferentiated adipose stem cells and differentiated adipose cells) is reported as “contained more adipose droplets” and the “content of adipose droplets” value (adipose stem cells; BP 10 μg/mL, vs adipose cells not treated by BP and other BP groups) is reported as “highest content of adipose droplets”. The “content of adipose droplets” value (adipose stem cells; BP 50 μg/mL, vs adipose cells not treated by BP) was “contained more adipose droplets”, the “oxygen consumption rate (FIG. 3A)” value (adipose cells; BP 2 μg/mL) was “higher oxygen consumption rate” and the “spare respiratory capacity (FIG. 3B)” value (adipose cells; BP 2 μg/mL) was “higher”. The “oxygen consumption rate (FIG. 3A)” value (adipose cells; BP 10 μg/mL) was “higher oxygen consumption rate”, the “spare respiratory capacity (FIG. 3B)” value (adipose cells; BP 10 μg/mL) was “higher” and the “oxygen consumption rate (FIG. 3A)” value (adipose cells; BP 50 μg/mL) was “higher oxygen consumption rate”. The “spare respiratory capacity (FIG. 3B)” value (adipose cells; BP 50 μg/mL) was “higher”, the “increments of UCP1 gene and UCP1 protein compared with known drugs” value (UCP1; BP 10 μg/mL vs tofacitinib 2 μM, adenosine 1 μM, proanthocyanidin 10 μM) was “higher than that of tofacitinib group, adenosine group and proanthocyanidin group” and the “expression of UCP1 gene (RT-PCR, FIG. 4A)” value (UCP1; BP 10 μg/mL, vs control group) was “significantly increased”. The “expression of UCP1 protein (Western blot, FIG. 4B)” value (UCP1; BP 10 μg/mL, vs control group) was “significantly increased”, the “cell morphology of subcutaneous and visceral adipose tissue (FIGS. 5A, 5B)” value (C57BL/6 mice [1]) was “contained the brown adipose cells with numerous small adipose droplets” and the “Subcutaneous adipose tissue (weight, average)” value (C57BL/6 mice [2]; [5]) was 0.24 g. The “Visceral adipose tissue (weight, average)” value (C57BL/6 mice [2]; [5]) was 0.57 g, the “accumulation condition of white fat in visceral (appearance, FIG. 6A)” value (C57BL/6 mice [2]; vs HFD group) was “significantly alleviated” and the “weights of subcutaneous fat and visceral fat, in words” value (C57BL/6 mice [2]; vs HFD group) was “significantly lower”. For the same compound, the “weights of mice (weight gain, 9 to 18 weeks old, FIG. 7)” value [3] was “increased significantly less”, the “Relative content of glucose” value (C57BL/6 mice [4]; [6]) was 85 and the “Relative content of total cholesterol” value (C57BL/6 mice [4]; [6]) was 80. For the same compound, the “Relative content of triglycerides” value (C57BL/6 mice [4]; [6]) was 84, the “Glucose (serum)” value (C57BL/6 mice [4]; [7]) was 411.50 ± 43.50 mg/dL and the “Total cholesterol (serum)” value (C57BL/6 mice [4]; [7]) was 157.50 ± 1.50 mg/dL. The “Triglycerides (serum)” value (C57BL/6 mice [4]; [7]) was 213.50 ± 50.50 mg/dL, the “content of glucose in blood, in words” value (C57BL/6 mice [4]; [8]) was “significantly lower” and the “content of total cholesterol in blood (FIG. 8C; printed as triglycerides), in words” value (C57BL/6 mice [4]; [8]) was “significantly lower”. For the same compound, the “content of triglycerides in blood, in words” value (C57BL/6 mice [4]; [8]) was “significantly lower”.
